# From patent US12612410B2 (CHILDREN'S HOSPITAL MEDICAL CENTER, priority 2020, dated 2026)
# How the values were obtained:
# IRAK4 = biological target: T1, IRAK4 (Homo sapiens, UniProt Q9NWZ3); test: Reaction Biology NanoBRET target engagement assay, IRAK4; format: cell-based; conditions: transfected HEK-293 cells
# T1 sequence (Q9NWZ3 1-460): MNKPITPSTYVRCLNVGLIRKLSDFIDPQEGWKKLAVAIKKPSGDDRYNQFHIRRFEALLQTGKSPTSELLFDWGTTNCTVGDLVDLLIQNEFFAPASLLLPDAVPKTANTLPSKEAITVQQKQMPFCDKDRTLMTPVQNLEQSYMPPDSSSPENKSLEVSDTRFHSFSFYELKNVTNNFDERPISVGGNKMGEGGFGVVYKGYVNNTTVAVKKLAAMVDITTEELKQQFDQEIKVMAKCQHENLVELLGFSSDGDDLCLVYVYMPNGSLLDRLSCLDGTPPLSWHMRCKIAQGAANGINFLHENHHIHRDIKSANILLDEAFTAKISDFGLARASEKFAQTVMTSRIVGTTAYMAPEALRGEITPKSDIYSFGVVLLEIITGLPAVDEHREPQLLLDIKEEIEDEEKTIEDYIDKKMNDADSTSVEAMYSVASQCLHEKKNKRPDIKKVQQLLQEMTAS
# From the text: The NanoBRET assay measures kinase engagement in real time in the context of the intact cell. Unlike the previously described biochemical kinase assay methodologies in Examples 26-27, the NanoBRET assay measures the binding and activity characteristics under equilibrium conditions using full-length kinases in the presence of cellular concentrations of ATP in live, uncompromised cells. As such, the assay provides a more relevant assessment of kinase potency and selectivity that would be expected to be observed in the native cellular environment, where potency is often considerably lower than that observed in the isolated biochemical assays (Vasta, J. D. et al., (2018) Cell Chem. Biol. 25, 206-214). The assay uses a Kinase-NanoLuc® fusion vector expressing a kinase protein to which a luciferase tag has been added, a cell-permeant fluorescent NanoBRET™ tracer, a NanoLuc® substrate, and an extracellular NanoLuc® inhibitor. Upon expression of the luciferase-tagged kinase, cells will produce a strong BRET signal only in the presence of the NanoBRET™ tracer. The extracellular NanoLuc® inhibitor ensures that the BRET signal observed emanates only from live cells. Because the BRET signal has tight distance constraints, addition of the test compound will decrease the BRET signal if the compound competes with the NanoBRET™ tracer for binding to the kinase domain. Under the appropriate tracer conditions established by the manufacturer, quantitative intracellular affinity and relative potency can then be determined using Mass Action model equations.
# HEK-293 cells were purchased from ATCC. FuGENEHD Transfection Reagent, Kinase-NanoLucfusion plasmids, Transfection Carrier DNA, NanoBRETTracers and dilution buffer, NanoBRETNano-Glo Substrate, Extracellular NanoLucInhibitor were obtained from Promega.
# Assays were conducted following Promega assay protocol with some modifications. HEK-293 Cells were transiently transfected with Kinase-NanoLucFusion Vector DNA by FuGENEHD Transfection Reagent. Testing compounds were delivered into 384 well assay plate by Echo 550 (Labcytelnc, Sunnyvale, CA). Transfected cells were harvested and mixed with NanoBRETTracer Reagent and dispensed into 384 well plates and incubated at 37° C. in 5% CO2 cell culture incubator for 1 hour. The NanoBRETNano-Glo Substrate plus Extracellular NanoLucInhibitor Solution were added into the wells of the assay plate and incubated for 2-3 minutes at room temperature. The donor emission wavelength (460 nm) and acceptor emission wavelength (600 nm) were measured in the EnVisionplate reader. The BRET Ratios were calculated. BRET Ratio=[(Acceptor sample÷Donor sample)−(Acceptor no-tracer control÷Donor no-tracer control)]. The IC50 values of compounds were calculated with Prism GraphPad program.
# NanoBRET™ Target Engagement Assay Protocol
# 1. Transient Transfection of HEK-293 Cells NanoLuc® Fusion Vector DNA
# • 1). Cultivate HEK-293 cells (70-80% confluence) appropriately prior to assay. Trypsinize and collect HEK-293 cells. • 2). Prepare lipid: DNA complexes as follows: • a. Prepare a […] solution of DNA in Opti-MEM without serum that consists of the following ratios of carrier DNA and DNA encoding NanoLuc® fusion. 9.0 µg/mL of Transfection Carrier DNA, […] of NanoLuc fusion vector DNA and 1 mL of Opti-MEM without phenol red. Mix thoroughly. • b. Add 30 l of FuGENE HD Transfection Reagent into each milliliter of DNA mixture to form lipid: DNA complex. • c. Mix by inversion 10 times. • d. Incubate at ambient temperature for 20 minutes to allow complexes to form. • 3). In a sterile, conical tube, mix 1 part of lipid: DNA complex with 20 parts of HEK-293 cells in suspension. Mix gently by inversion 5 times. • 4). Dispense cells+lipid: DNA complex into a sterile tissue culture dish and incubate for 22-24 hours. 2. Addition of Test Compounds (dry plate shooting)
# Each test compound is delivered from the compound source plate to the wells of 384-well white NBS plate by Echo 550.
# 3. […]
# MOLM14 F691L cells = test: MOLM14 F691L cell viability assay (Cell Titer Glo); format: cell-based; conditions: Homo sapiens, MOLM-14, 48 h
# In short: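 MOLM14 cells carrying FLT3 D835Y or F691L were seeded at 1000 cells/well in RPMI-1640 with 20% FBS and dosed at 22 concentrations, 1:2 dilutions from 10 μM. Viability after 48 h by Cell Titer Glo luminescence; 2.3 μM bortezomib as cytotoxic control.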
Structure (SMILES),IC50 (IRAK4) [nM],IC50 (MOLM14 F691L cells) [nM]
"CC(C)(C)c1cn2c(-c3cccc(N[C@H]4CNCC[C@@H]4F)n3)cnc2cn1 [Compound 130, 6-(6-(tert-butyl)imidazo[1,2-a]pyrazin-3-yl)-N-((3S,4S)-4-fluoropiperidin-3-yl)pyridin-2-amine]",< 0.5,130
"CC(O)(c1cn2c(-c3cccc(N[C@@H]4CCCNC4)n3)cnc2cn1)C(F)(F)F (single isomer, unassigned) [Compound 81]",< 0.5,211
"CC(C)(O)c1cn2c(-c3cccc(N[C@H]4CNCC[C@@H]4F)n3)cnc2cn1 [Compound 31, 2-(3-(6-(((3S,4S)-4-fluoropiperidin-3-yl)amino)pyridin-2-yl)imidazo[1,2-a]pyrazin-6-yl)propan-2-ol]",< 0.5,249
"F[C@H]1CCNC[C@@H]1Nc1cccc(-c2cnc3cnc(C4CC4)cn23)n1 [Compound 51, 6-(6-cyclopropylimidazo[1,2-a]pyrazin-3-yl)-N-((3S,4S)-4-fluoropiperidin-3-yl)pyridin-2-amine]",0.6,53
"CC(C)(O)c1cn2c(-c3nc(N[C@H]4CNC[C@@H]4F)c(F)cc3F)cnc2cn1 [Compound 33, 2-(3-(3,5-difluoro-6-(((3S,4S)-4-fluoropyrrolidin-3-yl)amino)pyridin-2-yl)imidazo[1,2-a]pyrazin-6-yl)propan-2-ol]",< 0.5,2660
"CC1(c2cn3c(-c4cccc(N[C@H]5CNC[C@@H]5F)n4)cnc3cn2)CC1 [Compound 1, N-((3S,4S)-4-fluoropyrrolidin-3-yl)-6-(6-(1-methylcyclopropyl)imidazo[1,2-a]pyrazin-3-yl)pyridin-2-amine]",< 0.5,169
"O=C1CCCN1c1cn2c(-c3cccc(N[C@H]4CNCC[C@@H]4F)n3)cnc2cn1 [Compound 119, 1-(3-(6-(((3S,4S)-4-fluoropiperidin-3-yl)amino)pyridin-2-yl)imidazo[1,2-a]pyrazin-6-yl)pyrrolidin-2-one]",2,54
"CC(C)(C)c1cn2c(-c3nc(N[C@@H]4CCCNC4)c(F)cc3F)cnc2cn1 [Compound 126, (R)-6-(6-(tert-butyl)imidazo[1,2-a]pyrazin-3-yl)-3,5-difluoro-N-(piperidin-3-yl)pyridin-2-amine]",< 0.5,205
"O=S1(=O)CCCN1c1cn2c(-c3cccc(N[C@H]4CNCC[C@@H]4F)n3)cnc2cn1 [Compound 97, 2-(3-(6-(((3S,4S)-4-fluoropiperidin-3-yl)amino)pyridin-2-yl)imidazo[1,2-a]pyrazin-6-yl)isothiazolidine 1,1-dioxide]",0.9,26
